Data taken from patent US20260325654A1, “METHODS AND COMPOSITIONS FOR TARGETED PROTEIN DEGRADATION” (Ranok Therapeutics (Hangzhou) Co. Ltd., priority 2023, published 2026).

Legend:
KRAS(G12D) = KRAS(G12D) (Homo sapiens, UniProt P01116, G12D); assay: cell-based; type: cell-based; design: Cell lines SW1990 and GP2D that express KRAS(G12D); host or cells: SW1990; conditions: SW1990, read-out: WB data SW1990 DMax
Experimental: Cell lines were cultured according to ATCC, JCRB and Sigma Aldrich recommendations.
Cells were then washed with cold PBS, aspirated and cold RIPA buffer containing a protease/phosphatase inhibitor cocktail was added to lyse cells. After centrifugation, the total protein concentrations of cell lysates were determined using the BCA protein assay. Samples were normalized for equivalent protein concentrations, 5× SDS-PAGE loading buffer added and denatured at 100° C. for 10 min. 20 μl of each sample/well was loaded on a SDS-PAGE gel and electrophoresed for 20 min at 80 V, then 120 V for 1.5 hr. Gels were then electroblotted to nitrocellulose membranes using a wet-transfer method at 250 mA for 2.5 hr. Membranes were incubated with blocking buffer for 1 hr and washed 3 times with TBST for 5 min. Membranes were then incubated with anti-KRAS (Sigma-Aldrich, #SAB1404011) and anti-β-Actin monoclonal antibodies (Cell Signaling Technology, #3700) diluted in blocking buffer at 4° C. overnight per the manufacturer's recommendations. After washing 3 times, blots were incubated with appropriately labeled secondary antibodies for 1 hr at room temperature and washed again. Fluorescence imaging and quantitation was performed using a LI-COR Odyssey. Results was analyzed using GraphPad Prism 7 software. Compound concentrations that induced KRAS degradation (DC50 and DCmax) were calculated using GraphPad Prism 7 software.

AGS = assay: CellTiter-Glo Reagent cancer cell line proliferation assay, AGS; type: cell-based, human; conditions: Homo sapiens, 24 h, KRAS(G12D) heterozygous
Description: (§1) The following cancer cell lines were employed: • AsPC-1 human pancreatic adenocarcinoma, homozygous KRAS(G12D), (ATCC, #CRL-1682); A-427 human lung carcinoma, heterozygous KRAS(G12D), (ATCC, #HTB-53); AGS human gastric adenocarcinoma, heterozygous KRAS(G12D), (ATCC, #CRL-1739); GP2D human colon adenocarcinoma, heterozygous KRAS(G12D), (Sigma Aldrich, 95090714); SW1990 human pancreatic adenocarcinoma, homozygous KRAS(G12D), (ATCC, #CRL2172); LU65A human lung giant cell carcinoma, heterozygous KRAS(G12C), (JCRB Cell Bank, #JCRB0054); NCIH727 human lung carcinoid, heterozygous KRAS(G12V), (ATCC, #CRL-5815); MKN1 human gastric adenosquamous carcinoma KRAS (wt), (JCRB Cell Bank, #JCRB0252). Cell lines were cultured according to ATCC, JCRB and Sigma Aldrich recommendations.
(§2) Cells were plated in 96-well tissue culture plates at 4,000 cells/well and incubated at 37° C./5% CO2 for 24 hr in 100 μl of media. 3-fold serial dilutions of each test compound were prepared ranging from 20 μM to 1.02 nM. Cells were then treated with test compounds at various concentrations with a final concentration of 0.5% DMSO/well, and then incubated at 37° C./5% CO2 for 24 hr. 100 μl of CellTiter-Glo® Reagent (Promega Corporation, Madison, WI) was added to each well and processed according manufacturer's protocol. Results were analyzed and IC50-values were calculated in GraphPad 7 software.

GP2D = assay: CellTiter-Glo Reagent cancer cell line proliferation assay, GP2D; type: cell-based; conditions: Homo sapiens, KRAS(G12D) heterozygous, 24 hr
Description: as §1, §2

LU65A = assay: CellTiter-Glo Reagent cancer cell line proliferation assay, LU65A; type: cell-based, human; conditions: Homo sapiens, 24 h, KRAS(G12C) heterozygous
Description: as §1, §2

NCIH727 = assay: CellTiter-Glo Reagent cancer cell line proliferation assay, NCIH727; type: cell-based, human; conditions: Homo sapiens, NCI-H727, 24 h, NCIH727, KRAS(G12V) heterozygous
Description: as §1, §2

MKN1 = assay: CellTiter-Glo Reagent cancer cell line proliferation assay, MKN1; type: cell-based; conditions: Homo sapiens, MKN-1; MKN1, KRAS (wt), 24 hr
Description: as §1, §2

Sequence of KRAS(G12D) (P01116 1-188 isoform P01116-2 G12D): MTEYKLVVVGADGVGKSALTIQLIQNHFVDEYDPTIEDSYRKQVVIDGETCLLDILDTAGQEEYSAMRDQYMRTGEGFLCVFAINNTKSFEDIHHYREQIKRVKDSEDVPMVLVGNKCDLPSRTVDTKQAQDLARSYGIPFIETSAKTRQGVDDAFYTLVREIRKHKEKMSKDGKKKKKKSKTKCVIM

| Compound | Dmax (KRAS(G12D)) [%] | IC50 (AGS) [nM] | IC50 (GP2D) [nM] | IC50 (LU65A) [nM] | IC50 (NCIH727) [nM] | IC50 (MKN1) [nM] |
| --- | --- | --- | --- | --- | --- | --- |
| C#Cc1cccc2cc(O)cc(-c3ncc4c(N5CC6CCC(C5)N6)nc(OCC5(CN6CCN(CC7CCN(CC(=O)N[C@@H](C(=O)N8C[C@@H](O)C[C@@H]8C(=O)NCc8ccc(-c9scnc9C)cc8)C(C)(C)C)CC7)CC6)CC5)nc4c3F)c12 [Compound 52] | > 50 |  |  |  |  |  |
| C#Cc1c(F)ccc2cc(O)cc(-c3ncc4c(N5CC6CCC(C5)N6C(=O)NC(C)(C)C)nc(OCC5(CN6CCN(CC7CCN(c8ccc9c(c8)CN(C8CCC(=O)NC8=O)C9=O)CC7)CC6)CC5)nc4c3F)c12 (stereo not drawn) [Compound 118] |  | 100 to 1000 | < 100 | 100 to 1000 | > 1000 | 100 to 1000 |
| C#Cc1c(F)ccc2cc(O)cc(-c3ncc4c(N5CC6CCC(C5)N6C(=O)/C(C#N)=C/C5CC5)nc(OCC5(CN6CCN(CC7CCN(c8ccc9c(c8)CN(C8CCC(=O)NC8=O)C9=O)CC7)CC6)CC5)nc4c3F)c12 (stereo not drawn) [Compound 124] |  | 100 to 1000 | 100 to 1000 | < 100 | > 1000 | > 1000 |
| C#Cc1c(F)ccc2cc(O)cc(-c3ncc4c(N5CC6CCC(C5)N6)nc(OCC5(CN6CCC(N7CCC(c8ccc9c(c8)CN(C8CCC(=O)NC8=O)C9=O)CC7)CC6)CC5)nc4c3F)c12 (stereo not drawn) [Compound 77] | > 50 |  |  |  |  |  |
| [2H]C([2H])([2H])Oc1nc(-c2cc(O)cc3ccc(F)c(C#C)c23)c(F)c2nc(OCC3(CN4CCN(CC5CCN(c6ccc7c(c6)CN(C6CCC(=O)NC6=O)C7=O)CC5)CC4)CC3)nc(N3CC4CCC(C3)N4CC3CC3)c12 (stereo not drawn) [Compound 99] |  | > 1000 | 100 to 1000 |  |  |  |
| C#Cc1c(F)ccc2cc(O)cc(-c3ncc4c(N5C[C@H]6CC[C@@H](C5)N6)nc(OCC5(CN6CCC(CN7CCC(c8ccc9c(c8)CN(C8CCC(=O)NC8=O)C9=O)C(F)(F)C7)CC6)CC5)nc4c3F)c12 (stereo partly drawn) [Compound 93, 3-(5-(1-((1-((1-(((4-((1R,5S)-3,8-diazabicyclo[3.2.1]octan-3-yl)-7-(8-ethynyl-7-fluoro-3-hydroxynaphthalen-1-yl)-8-fluoropyrido[4,3-d]pyrimidin-2-yl)oxy)methyl)cyclopropyl)methyl)piperidin-4-yl)methyl)-3,3-difluoropiperidin-4-yl)-1-oxoisoindolin-2-yl) piperidine-2,6-dione] |  | < 100 | < 100 |  |  |  |
| [2H]C([2H])([2H])Oc1nc(-c2cc(O)cc3ccc(F)c(C#C)c23)c(F)c2nc(OCC3(CN4CCN(CC5CCN(c6ccc(NC7CCC(=O)NC7=O)cc6)CC5)CC4)CC3)nc(N3CC4CCC(C3)N4C(=O)CC#N)c12 (stereo not drawn) [Compound 119] |  | 100 to 1000 | 100 to 1000 | 100 to 1000 | 100 to 1000 | 100 to 1000 |
| C#Cc1c(F)ccc2cc(O)cc(-c3nc(OC)c4c(N5CC6CCC(C5)N6)nc(OCC5(CN6CCN(C7CCN(c8ccc9c(c8)CN(C8CCC(=O)NC8=O)C9=O)CC7)CC6)CC5)nc4c3F)c12 (stereo not drawn) [Compound 82] | > 50 |  |  |  |  |  |
| C#Cc1c(F)ccc2cc(O)cc(-c3nc(OC)c4c(N5CC6CCC(C5)N6C(=O)CCC#N)nc(OCC5(CN6CCN(CC7CCN(c8ccc9c(c8)CN(C8CCC(=O)NC8=O)C9=O)CC7)CC6)CC5)nc4c3F)c12 (stereo not drawn) [Compound 117] |  | < 100 | < 100 | < 100 | < 100 | 100 to 1000 |
| O=CO.[2H]C([2H])([2H])Oc1nc(-c2cc(O)cc3ccc(F)c(C#C)c23)c(F)c2nc(OCC3(CN4CCN(CC5CCN(c6ccc7c(c6)CN(C6CCC(=O)NC6=O)C7=O)CC5)CC4)CC3)nc(N3CC4CCC(C3)N4C(=O)C(C#N)CC(F)(F)F)c12 (stereo not drawn) [Compound 121] |  | > 1000 | 100 to 1000 | < 100 | > 1000 | > 1000 |
| C#Cc1c(F)ccc2cc(O)cc(-c3nc(OC)c4c(N5CCN(C(=O)C=C)[C@@H](CC#N)C5)nc(OCC5(CN6CCN(CC7CCN(c8ccc9c(c8)CN(C8CCC(=O)NC8=O)C9=O)CC7)CC6)CC5)nc4c3F)c12 (stereo partly drawn) [Compound 125] |  |  |  | < 100 |  | < 100 |
| [2H]C([2H])([2H])Oc1nc(-c2cc(O)cc3ccc(F)c(C#C)c23)c(F)c2nc(OCC3(CN4CCN(CC5CCN(c6ccc7c(c6)CN(C6CCC(=O)NC6=O)C7=O)CC5)CC4)CC3)nc(N3CC4CCC(C3)N4C(=O)C(C)CC#N)c12 (stereo not drawn) [Compound 116] |  | 100 to 1000 | 100 to 1000 | 100 to 1000 | > 1000 | 100 to 1000 |
| C#Cc1c(F)ccc2cc(O)cc(-c3nc(OC)c4c(N5CC6CCC(C5)N6C(=O)NCC(F)(F)F)nc(OCC5(CN6CCN(CC7CCN(c8ccc9c(c8)CN(C8CCC(=O)NC8=O)C9=O)CC7)CC6)CC5)nc4c3F)c12 (stereo not drawn) [Compound 123] |  | < 100 | < 100 | < 100 | < 100 | > 1000 |
| C#Cc1c(F)ccc2cc(O)cc(-c3nc(OC)c4c(N5CC6CCC(C5)N6C(=O)NCC#N)nc(OCC5(CN6CCN(CC7CCN(c8ccc9c(c8)CN(C8CCC(=O)NC8=O)C9=O)CC7)CC6)CC5)nc4c3F)c12 (stereo not drawn) [Compound 122] |  | < 100 | < 100 | < 100 | 100 to 1000 | > 1000 |
| C#Cc1c(F)ccc2cc(O)cc(-c3ncc4c(N5CC6CCC(C5)N6C(=O)[C@H](C)C#N)nc(OCC5(CN6CCN(CC7CCN(c8ccc9c(c8)CN(C8CCC(=O)NC8=O)C9=O)CC7)CC6)CC5)nc4c3F)c12 (stereo partly drawn) [Compound 110] |  | > 1000 | > 1000 | < 100 | 100 to 1000 | 100 to 1000 |
| C#Cc1c(F)ccc2cc(O)cc(-c3ncc4c(N5CC6CCC(C5)N6C(=O)CC(C)C#N)nc(OCC5(CN6CCN(CC7CCN(c8ccc9c(c8)CN(C8CCC(=O)N(C)C8=O)C9=O)CC7)CC6)CC5)nc4c3F)c12 (stereo not drawn) [Compound 130] |  | 100 to 1000 |  | 100 to 1000 | 100 to 1000 |  |
| C#Cc1c(F)ccc2cc(O)cc(-c3nc4c5c(nc(OCC6(CN7CCN(CC8CCN(c9ccc%10c(c9)CN(C9CCC(=O)NC9=O)C%10=O)CC8)CC7)CC6)nc5c3F)N(CC(F)F)[C@@H](C)CO4)c12 (stereo partly drawn) [Compound 158] |  | < 100 |  | < 100 | < 100 |  |
| C#Cc1c(F)ccc2cc(O)cc(-c3nc(OC)c4c(N5CC6CCC(C5)N6C(=O)CC(C)C#N)nc(OCC5(CN6CCN(CC7CCN(c8cccc(NC9CCC(=O)NC9=O)c8)CC7)CC6)CC5)nc4c3F)c12 (stereo not drawn) [Compound 142] |  | < 100 |  | < 100 | < 100 |  |
| C#Cc1c(F)ccc2cc(O)cc(-c3ncc4c(N5CC6CCC(C5)N6C(=O)CC(C)C#N)nc(OCC5(CN6CCN(CC7CCN(c8ccc9c(c8)CN(C8CCC(=O)NC8=O)C9=O)CC7)CC6)CC5)nc4c3F)c12 (stereo not drawn) [Compound 129] |  | < 100 |  | < 100 | < 100 |  |
| C#Cc1c(F)ccc2cc(O)cc(-c3nc(OC)c4c(N5CCCO[C@@H]6C[C@@H]65)nc(OCC5(CN6CCN(CC7CCN(c8ccc9c(c8)CN([C@H]8CCC(=O)NC8=O)C9=O)CC7)CC6)CC5)nc4c3F)c12 [Compound 165] |  | < 100 |  | < 100 | < 100 |  |
| N#Cc1c(N)sc2c1C1(CCC2)CCCc2c(-c3nc(Cl)cc(OCC4(CN5CCN(CC6CCN(c7ccc8c(c7)CN(C7CCC(=O)NC7=O)C8=O)CC6)CC5)CC4)n3)noc21 (stereo not drawn) [Compound 156] |  | < 100 |  | < 100 | < 100 |  |
| C#Cc1c(F)ccc2cc(O)cc(-c3nc(OC)c4c(N5CC6CCC(C5)N6C(=O)CC(C)C#N)nc(OCC5CCCN(CC6CCN(c7ccc8c(c7)CN(C7CCC(=O)NC7=O)C8=O)CC6)C5)nc4c3F)c12 (stereo not drawn) [Compound 146] |  | < 100 |  | < 100 | < 100 |  |
